Results taken from patent US7423017B2, “Method for treating cartilage disorders” (Genentech, Inc., priority 1997, dated 2008).
Positions of bridges follow the written chain, without caps; N, C: chain ends. Residues, ends and D or L forms follow the SMILES beside them.

What was measured:
[1] = biological target: T1, IGFBP-3 (Homo sapiens, UniProt P17936); assay: IGF-1 blocking phage assay: peptide-phage binding to coated IGFBP-3 with/without IGF-1; details: 100 nM IGF-1; 50-fold dilution of phage
T1 construct: made in house
Method: IGFBP-3 was coated directly onto MAXISORP198 plates as above. Phage from clonal cultures were mixed with IGF-1 (100 nM final concentration), and incubated with the immobilized IGFBP-3 for 1 hour at room temperature. The plates were then washed ten times, as above, and a solution of rabbit anti-phage antibody mixed with a goat-anti-rabbit conjugate of horseradish peroxidase was added. After an incubation of 1 hour at room temperature, the plates were developed with a chromogenic substrate, o-phenylenediamine (Sigma). The reaction was stopped with addition of ½ volume of 2.5 M H2SO4. Optical density at 490 nm was measured on a spectrophotometric plate reader.
In each case, the phagemid clone was grown from a single colony overnight at 37° C. in a culture volume of 5 ml. The phage particles were precipitated and resuspended in 0.5 ml of PBS buffer. A 50-fold dilution of each phage solution was made into PBS/TWEEN™ buffer, and the phage were incubated with or without 100 nM IGF-1 on an IGFBP-3-coated MAXISORP™ plate.
In each case, the phagemid clone was grown from a single colony overnight at 37° C. in a culture volume of 5 ml. The phage particles were prepared as described above.

[2] = biological target: T1, IGFBP-3; assay: BIACORE competition assay: IGFBP-3 binding to immobilized IGF-1
Method: IGF-1 was immobilized on a dextran chip for inhibition assays using a BIACORE™ 2000 surface-plasmon-resonance device (BIAcore, Inc., Piscataway, N.J.) to measure free binding protein. IGF-1 was biotinylated as described above, and injected over a chip to which streptavidin had been coupled (BIAcore, Inc.) to give 400 to 800 RU (response units) of immobilized IGF-1. […] Serial dilutions of peptide were mixed with a constant concentration (40 nM) of IGFBP-3. After incubation for >1 hour at room temperature, an aliquot of 20 μL was injected at a flow rate of 20 μL/min over the IGF-1 chip. Following the injection, a response reading was taken to measure the relative amount of IGFBP-3 bound to the IGF-1.

[3] = biological target: T1, IGFBP-3; assay: radiolabeled IGF-1 plate assay, IGFBP-3 plate; format: binding
Method: (§1) As an additional assay of peptide activity, several peptides were tested in an assay using ^125I-labeled IGF-1 to measure inhibition of IGFBP binding, as described above (Assay 3). Serial dilutions of peptide were added to an IGFBP-1 or an IGFBP-3 plate. Thereafter, ^125I-labeled IGF-1 was added and the plates were incubated for 2 hours. The plates were then washed and counted to determine the amount of bound IGF-1.

[4] = biological target: T2, IGFBP-1 (Homo sapiens, UniProt P08833); assay: radiolabeled IGF-1 plate assay, IGFBP-1 plate; format: binding; set-up: made in house; host or cells: CHO cells
T2 sequence (P08833 26-259): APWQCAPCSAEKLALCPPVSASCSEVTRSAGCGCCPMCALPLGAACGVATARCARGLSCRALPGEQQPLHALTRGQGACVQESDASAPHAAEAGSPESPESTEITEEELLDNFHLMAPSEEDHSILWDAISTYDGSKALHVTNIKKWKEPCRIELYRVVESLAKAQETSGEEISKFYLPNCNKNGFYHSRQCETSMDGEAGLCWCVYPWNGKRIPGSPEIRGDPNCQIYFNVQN
Method: as §1

[5] = biological target: T2, IGFBP-1; assay: KIRA cell-based assay of IGF-like activity displaced by peptides from IGF-1/IGFBP-1; details: 2 nM IGF-1, […] IGFBP-1
Method: A cell-based (KIRA) assay was previously described for measuring the amount of IGF-like activity displaced by peptides from mixtures of IGF-1 and binding proteins (Lowman et al., supra, 1998; WO 98/45427, supra). The KIRA assay was used to compare in vitro bioactivity of BP1-16, BP1-02, BP1-25, and BP1-40. […] IGF-1 and peptide were mixed and added to cells expressing IGF receptor for 30 min, then IGFBP-1 was added for an additional 1 h.

[6] = biological target: T2, IGFBP-1; assay: BIAcore direct binding kinetics of peptides on immobilized IGFBP-1; set-up: made in house; host or cells: CHO cells; details: for Kd: koff/kon, BIAcore kinetics, read-out: KD ± (SD or SE)
Text: WO 98/45427 published Oct. 15, 1998 discloses the preparation and characterization of the IGFBP-1 displacer peptide BP1-01 ([…]) (SEQ ID NO:26). The kinetics of BP1-01 peptide variants were examined in a BIAcore™ (BIAcore, Inc., Piscataway, N.J.) assay using IGFBP-1 covalently coupled via EDC/NHS (as described by the manufacturer) to a dextran chip. […] The latter implies a half-life for peptide dissociation from IGFBP-1 of approximately 28 sec. The association rate constant is moderately fast, consistent with the notion that the peptide may not undergo significant conformation change upon binding to IGFBP-1.
Inhibition assays for measuring relative potencies of peptides for inhibiting IGFBP-1 binding to IGF-I have been described (e.g., WO 98/45427, supra). Peptides described herein were of sufficient binding affinity to allow for direct measurement of binding affinities by surface plasmon resonance (SPR) using a BIACORE™ system. The direct binding kinetics of IGFBP-1 peptides were measured by injecting a series of 2-fold diluted peptides in running buffer (0.05% TWEEN 20™ in PBS) over a carboxy-methyl (CM) biosensor chip coupled with about 590-1000 RU of IGFBP-1 at a flow rate of 50 μl/min on a BIACORE 2000™ or BIACORE 3000™ surface-plasmon-resonance instrument. The immobilization of IGFBP-1 was performed through EDC/NHS chemistry as described by the manufacturer. Peptides were also injected through a flow cell containing IGFBP-3 as background control. Since the off-rate for most of the peptides is relatively fast (in the range of 2×10^−2 s^−1), off-rate measurement was set for 30 minutes. This allowed for regeneration of IGFBP-1 on the chip by simple dissociation, rather than by addition of eluent. For each dilution of peptides, a global fit of the sensorgram data was performed using a 1:1 Langmuir binding model.

[7] = biological target: T1, IGFBP-3; assay: phage-ELISA competition assay of g3 peptide-phage clones; format: binding; details: g3 monovalent display
Text: A third clone, 3Ai.2, represents a new peptide sequence that was not identified from g8 display.

T1 sequence (P17936 28-291): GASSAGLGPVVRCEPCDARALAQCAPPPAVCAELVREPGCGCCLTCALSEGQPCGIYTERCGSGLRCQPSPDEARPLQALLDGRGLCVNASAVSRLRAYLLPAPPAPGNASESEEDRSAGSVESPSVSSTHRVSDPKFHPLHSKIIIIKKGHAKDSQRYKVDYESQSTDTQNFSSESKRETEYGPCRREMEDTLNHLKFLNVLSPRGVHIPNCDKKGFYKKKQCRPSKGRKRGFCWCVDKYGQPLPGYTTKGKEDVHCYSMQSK

inhibited for binding to IGFBP-3 (phage clone with vs without IGF-1) [1]	Compound	EC20 (concentration at which 20% of maximal IGF-1 activity is observed) [5] [nM]	Kd [6] [nM]	other results
about 20%	SGGAIYMPVEQFIAFMAVGK [23A3.5]	–	–	–
5%	VAWEVCWDRHDQGYICTTDS [4D3.11]	–	–	–
–	CSCC[C@H](NC(=O)[C@H](CC(N)=O)NC(=O)[C@@H]1CSSC[C@H](NC(=O)[C@@H](NC(=O)[C@H](CCC(=O)O)NC(=O)[C@H](CCC(=O)O)NC(=O)[C@@H](N)CO)C(C)C)C(=O)N[C@@H](Cc2c[nH]c3ccccc23)C(=O)N2CCC[C@H]2C(=O)N[C@@H](C(C)C)C(=O)N[C@@H](C)C(=O)N[C@@H](CCC(=O)O)C(=O)N[C@@H](Cc2c[nH]c3ccccc23)C(=O)N[C@@H](Cc2ccc(O)cc2)C(=O)N[C@@H](CC(C)C)C(=O)N1)C(=O)N[C@@H](Cc1c[nH]c2ccccc12)C(=O)NCC(=O)O [BP3-01-ox] (H-SEEVCWPVAEWYLCNMWG-OH; disulfide 5-14; N-terminus and C-terminus assumed)	–	–	IC50 [2]: 2000 nM; inhibition of 125I-IGF-1 binding to an IGFBP-3 plate [3]: inhibition; inhibition of 125I-IGF-1 binding to an IGFBP-1 coated plate [4]: did not inhibit IGF-1 binding to an IGFBP-1 coated plate
–	CC(C)C[C@@H]1NC(=O)[C@H](Cc2c[nH]c3ccccc23)NC(=O)[C@H](CCC(N)=O)NC(=O)[C@H](CC(C)C)NC(=O)[C@@H]2CCCN2C(=O)CNC(=O)[C@H](C)NC(=O)[C@H](CCCNC(=N)N)NC(=O)[C@@H](NC(=O)[C@@H](NC(=O)[C@H](CCCNC(=N)N)NC(=O)[C@H](C)NC(=O)[C@@H](N)CCC(=O)O)C(C)C)CSSC[C@@H](C(=O)N[C@@H](CCC(=O)O)C(=O)N[C@@H](CCCCN)C(=O)N[C@@H](Cc2ccc(O)cc2)C(=O)N[C@@H](Cc2ccccc2)C(=O)N[C@@H](CO)C(=O)N[C@H](C(=O)N[C@@H](Cc2ccc(O)cc2)C(=O)O)[C@@H](C)O)NC1=O [BP1-25] (H-EARVCRAGPLQWLCEKYFSTY-OH; disulfide 5-14; N-terminus and C-terminus assumed)	10 to 20	42 ± 11	–
–	CSCC[C@@H]1NC(=O)[C@H](Cc2c[nH]c3ccccc23)NC(=O)[C@@H]2CCCN2C(=O)CNC(=O)[C@H](CC(=O)O)NC(=O)[C@H](C)NC(=O)[C@@H](NC(=O)[C@@H](NC(=O)CNC(=O)[C@H](CCSC)NC(=O)[C@@H](N)CC(=O)O)C(C)C)CSSC[C@@H](C(=O)N[C@@H](CCC(=O)O)C(=O)N[C@@H](Cc2c[nH]c3ccccc23)C(=O)N[C@H](C(=O)N[C@@H](CCC(=O)O)C(=O)O)[C@@H](C)O)NC(=O)[C@H](C(C)C)NC(=O)[C@H](Cc2ccc(O)cc2)NC1=O [BP3-02-ox] (H-DMGVCADGPWMYVCEWTE-OH; disulfide 5-14; N-terminus and C-terminus assumed)	–	–	inhibition of 125I-IGF-1 binding to an IGFBP-3 plate [3]: inhibition; inhibition of 125I-IGF-1 binding to an IGFBP-1 coated plate [4]: did not inhibit IGF-1 binding to an IGFBP-1 coated plate
–	VAWEVCWDRHDQGYICTTDS [g3-4D3.11]	–	–	apparent affinity in phage-ELISA competition assays [7]: < 100 nM
–	CC(C)C[C@@H]1NC(=O)[C@H](Cc2c[nH]c3ccccc23)NC(=O)[C@H](CCC(N)=O)NC(=O)[C@H](CC(C)C)NC(=O)[C@@H]2CCCN2C(=O)CNC(=O)[C@H](C)NC(=O)[C@H](CCCNC(=N)N)NC(=O)[C@@H](NC(=O)CNC(=O)[C@@H](NC(=O)[C@H](CCC(=O)O)NC(=O)[C@@H](N)CO)C(C)C)CSSC[C@@H](C(=O)N[C@@H](CCC(=O)O)C(=O)N[C@@H](CCCCN)C(=O)N[C@@H](Cc2ccc(O)cc2)C(=O)N[C@@H](Cc2ccccc2)C(=O)NCC(=O)O)NC1=O [BP1-02] (H-SEVGCRAGPLQWLCEKYFG-OH; disulfide 5-14; N-terminus and C-terminus assumed)	150 to 200	210 ± 46	half-life for peptide dissociation from IGFBP-1 [6]: approximately 28 sec; kon ([6]; peptide on immobilized IGFBP-1, read-out: association rate constant): 230000 M⁻¹ s⁻¹
–	CC(C)C[C@@H]1NC(=O)[C@H](Cc2c[nH]c3ccccc23)NC(=O)[C@H](CCC(N)=O)NC(=O)[C@H](CC(C)C)NC(=O)[C@@H]2CCCN2C(=O)CNC(=O)[C@H](C)NC(=O)[C@H](CCCNC(=N)N)NC(=O)[C@@H](NC(=O)[C@H](CO)NC(=O)[C@H](CCC(N)=O)NC(=O)[C@H](CCC(N)=O)NC(=O)CN)CSSC[C@@H](C(=O)N[C@@H](CCC(=O)O)C(=O)N[C@@H](CCCCN)C(=O)N[C@@H](Cc2ccc(O)cc2)C(=O)N[C@@H](Cc2ccccc2)C(=O)N[C@@H](CO)C(=O)N[C@H](C(=O)N[C@@H](Cc2ccc(O)cc2)C(=O)O)[C@@H](C)O)NC1=O [BP1-40] (H-GQQSCRAGPLQWLCEKYFSTY-OH; disulfide 5-14; N-terminus and C-terminus assumed)	10 to 20	27 ± 21	–
about 20%	SGGAIYWPVEQFIAFMAVGK [23A3.3]	–	–	–
–	EESECFEGPGYVICGLVG [g3-4B3.3]	–	–	apparent affinity in phage-ELISA competition assays [7]: < 100 nM
